Experimental data taken from ChEMBL document CHEMBL1137755, “[35S]GTP gamma S binding studies of amphiphilic drugs-activated Gi proteins: a caveat” (Bioorg Med Chem Lett, 2009).
Values belong to the molecule of their own block, whether it stands above or below them. Activity calls are given as the source filed them. No cut-off for these calls is given here.

Tests used:
[1] = target: Guanine nucleotide-binding protein G(i) subunit alpha-1 (Homo sapiens) (UniProt P63096); assay: Activation of human Gi protein alpha1 subunit expressed in Escherichia coli assessed as protein bound [35S]GTPgammaS levels by scintillation spectroscopy; format: functional
Guanine nucleotide-binding protein G(i) subunit alpha-1 (Homo sapiens), sequence (P63096 whole entry): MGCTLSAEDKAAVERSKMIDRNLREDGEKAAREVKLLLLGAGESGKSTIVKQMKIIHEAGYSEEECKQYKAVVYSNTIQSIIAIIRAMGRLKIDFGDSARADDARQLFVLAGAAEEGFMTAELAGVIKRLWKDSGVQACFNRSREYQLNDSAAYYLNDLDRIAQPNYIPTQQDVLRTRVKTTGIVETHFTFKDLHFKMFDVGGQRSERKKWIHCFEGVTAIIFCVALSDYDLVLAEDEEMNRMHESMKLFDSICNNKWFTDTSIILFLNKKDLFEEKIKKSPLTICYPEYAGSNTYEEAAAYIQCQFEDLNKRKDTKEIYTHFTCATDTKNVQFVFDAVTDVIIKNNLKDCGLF

[2] = Critical micelle concentration by drop-shape analysis; format: physicochemical
[3] = target: Guanine nucleotide-binding protein G(i) subunit alpha-1 (Homo sapiens) (UniProt P63096); assay: Activation of human Gi protein alpha1 subunit expressed in Escherichia coli assessed as protein bound [35S]GTPgammaS levels at 10 uM by scintillation spectroscopy relative to basal; format: functional
[4] = target: Guanine nucleotide-binding protein G(i) subunit alpha-1 (Homo sapiens) (UniProt P63096); assay: Activation of human Gi protein alpha1 subunit expressed in Escherichia coli assessed as protein bound [35S]GTPgammaS levels at 50 uM by scintillation spectroscopy; format: functional
[5] = target: Guanine nucleotide-binding protein G(i) subunit alpha-1 (Homo sapiens) (UniProt P63096); assay: Activation of human Gi protein alpha1 subunit expressed in Escherichia coli assessed as protein bound [35S]GTPgammaS levels at 1 uM by scintillation spectroscopy; format: functional
[6] = target: Guanine nucleotide-binding protein G(i) subunit alpha-1 (Homo sapiens) (UniProt P63096); assay: Activation of human Gi protein alpha1 subunit expressed in Escherichia coli assessed as protein bound [35S]GTPgammaS levels at 10 uM by scintillation spectroscopy; format: functional
[7] = target: Guanine nucleotide-binding protein G(i) subunit alpha-1 (Homo sapiens) (UniProt P63096); assay: Activation of human Gi protein alpha1 subunit expressed in Escherichia coli assessed as protein bound [35S]GTPgammaS levels at 5 uM by scintillation spectroscopy; format: functional
[8] = target: Guanine nucleotide-binding protein G(i) subunit alpha-1 (Homo sapiens) (UniProt P63096); assay: Activation of human Gi protein alpha1 subunit expressed in Escherichia coli assessed as protein bound [35S]GTPgammaS levels at 100 uM by scintillation spectroscopy; format: functional
[9] = target: Guanine nucleotide-binding protein G(o) subunit alpha (Homo sapiens) (UniProt P09471); assay: Activation of human Go protein alpha subunit expressed in Escherichia coli assessed as protein bound [35S]GTPgammaS levels at 10 uM by scintillation spectroscopy; format: functional
Guanine nucleotide-binding protein G(o) subunit alpha (Homo sapiens), sequence (P09471 2-354 limits assumed): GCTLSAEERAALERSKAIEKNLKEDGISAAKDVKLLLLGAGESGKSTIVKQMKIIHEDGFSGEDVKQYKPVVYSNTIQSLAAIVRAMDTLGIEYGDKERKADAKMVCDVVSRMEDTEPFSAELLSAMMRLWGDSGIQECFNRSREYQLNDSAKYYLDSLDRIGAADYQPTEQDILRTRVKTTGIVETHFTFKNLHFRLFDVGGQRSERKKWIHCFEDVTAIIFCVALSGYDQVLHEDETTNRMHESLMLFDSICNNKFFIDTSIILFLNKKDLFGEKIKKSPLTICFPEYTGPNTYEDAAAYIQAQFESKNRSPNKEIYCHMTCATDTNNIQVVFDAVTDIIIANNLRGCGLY

[10] = target: Guanine nucleotide-binding protein G(o) subunit alpha (Homo sapiens) (UniProt P09471); assay: Activation of human Go protein alpha subunit expressed in Escherichia coli assessed as protein bound [35S]GTPgammaS levels at 50 uM by scintillation spectroscopy; format: functional
[11] = target: Guanine nucleotide-binding protein G(o) subunit alpha (Homo sapiens) (UniProt P09471); assay: Activation of human Go protein alpha subunit expressed in Escherichia coli assessed as protein bound [35S]GTPgammaS levels at 100 uM by scintillation spectroscopy; format: functional
[12] = target: Guanine nucleotide-binding protein G(o) subunit alpha (Homo sapiens) (UniProt P09471); assay: Activation of human Go protein alpha subunit expressed in Escherichia coli assessed as protein bound [35S]GTPgammaS levels at 1 uM by scintillation spectroscopy; format: functional
[13] = target: Guanine nucleotide-binding protein G(o) subunit alpha (Homo sapiens) (UniProt P09471); assay: Activation of human Go protein alpha subunit expressed in Escherichia coli assessed as protein bound [35S]GTPgammaS levels at 5 uM by scintillation spectroscopy; format: functional
[14] = target: Guanine nucleotide-binding protein G(o) subunit alpha (Homo sapiens) (UniProt P09471); assay: Activation of human Go protein alpha subunit expressed in Escherichia coli assessed as protein bound [35S]GTPgammaS levels at 10 uM by scintillation spectroscopy relative to basal; format: functional

Activity [1]: Active
SMILES: CCCCCCCCCCCCCCC(=O)N1CCC(C2CCN(C(=O)[C@@H](N)CCCCN)CC2)CC1

Activity [1]: inactive
SMILES: CCOCCOCCOCCOCCOCCN1CCC(C2CCNCC2)CC1

Activity [1]: Active | CMC [2]: 1 ×10⁻⁴ M
SMILES: CCCCCCCCCCCCCCCNC1CCN(CCN)CC1

Activity [1]: inactive
SMILES: c1ccc(CCCCN2CCC(C3CCNCC3)CC2)cc1

Activity [1]: Active
SMILES: CCCCCCCCCCCCCCCN1CCC(C2CCN(C(=O)[C@@H](N)CCCCN)CC2)CC1

Activity [1]: inactive
SMILES: CCCCCCCN1CCC(C2CCNCC2)CC1

Activity [1]: inactive
SMILES: CCCCCCCNN1CCNCC1

SMILES: CCCCCCCNC1CCNCC1
Activity [1]: inactive

Activity [1]: inactive
SMILES: c1ccc(CCCCNCC2CCNCC2)cc1

Activity [3]: 2550% | Activity [4]: 2300 fmol | Activity [5]: 11.6 fmol | Activity [6]: 234 fmol | Activity [7]: 78.7 fmol
SMILES: CCCCCCCCCCCCCCCN1CCC(C2CCN(CCN)CC2)CC1

Activity [1]: inactive
SMILES: CCOCCOCCOCCNCC1CCNCC1

Activity [3]: 693% | Activity [8]: 195 fmol | Activity [4]: 196 fmol | Activity [9]: 636 fmol | Activity [10]: 1400 fmol | Activity [11]: 1420 fmol | Activity [5]: 15.4 fmol | Activity [12]: 102 fmol | Activity [6]: 70.6 fmol | CMC [2]: 1.44 ×10⁻⁴ M | Activity [13]: 363 fmol | Activity [7]: 49.5 fmol | Activity [14]: 668%
SMILES: CCCCCCCCCCCCCCCNC1CCNCC1

Activity [1]: inactive
SMILES: CCOCCOCCOCCN1CCC(C2CCNCC2)CC1

Activity [1]: inactive
SMILES: CCCCCN1CCC(C2CCNCC2)CC1

SMILES: CCOCCOCCOCCOCCNC1CCNCC1
Activity [1]: inactive

Activity [1]: inactive
SMILES: CCOCCOCCOCCOCCOCCNC1CCNCC1

Activity [1]: inactive
SMILES: CCCCCCCCCNN1CCNCC1

Activity [1]: Active
SMILES: CCCCCCCCCCCCCCCNC1CCN(C(=O)[C@@H](N)CCCCN)CC1

Activity [1]: inactive
SMILES: c1ccc(CCCCNN2CCNCC2)cc1

Activity [1]: Active
SMILES: CCCCCCCCCCCCCCCNC1CCN(CCNC(=O)[C@@H](N)CCCCN)CC1

Activity [1]: inactive
SMILES: CCCCCCCCCN1CCC(C2CCNCC2)CC1

SMILES: CCCCCNC1CCNCC1
Activity [1]: inactive

Activity [1]: inactive
SMILES: CCOCCOCCOCCOCCN1CCC(C2CCNCC2)CC1

Activity [3]: 877% | Activity [4]: 103 fmol | Activity [5]: 30.3 fmol | Activity [6]: 87 fmol | Activity [7]: 76.2 fmol
SMILES: CCCCCCCCCCCCCCC(=O)N1CCC(C2CCN(CCN)CC2)CC1

SMILES: CCOCCOCCOCCNC1CCNCC1
Activity [1]: inactive

Activity [1]: inactive
SMILES: CCCCCNCC1CCNCC1

Activity [1]: inactive
SMILES: CCCCCNN1CCNCC1

Activity [3]: 1660% | Activity [4]: 185 fmol | Activity [5]: 23.7 fmol | Activity [6]: 157 fmol | Activity [7]: 103 fmol
SMILES: CCCCCCCCCCCCCCCN1CCC(NC(=O)[C@@H](N)CCCCN)CC1

Activity [3]: 2990% | Activity [4]: 781 fmol | Activity [5]: 19.9 fmol | Activity [6]: 275 fmol | CMC [2]: 1.41 ×10⁻⁴ M | Activity [7]: 33.3 fmol
SMILES: CCCCCCCCCCCCCCCN1CCC(C2CCN(CCNC(=O)[C@@H](N)CCCCN)CC2)CC1

Activity [3]: 1170% | Activity [4]: 980 fmol | Activity [5]: 8.9 fmol | Activity [6]: 113 fmol | Activity [7]: 69.1 fmol
SMILES: CCCCCCCCCCCCCCCNCC1CCN(CCNC=O)CC1

SMILES: CCCCCCCCCNC1CCNCC1
Activity [1]: inactive

Activity [1]: inactive
SMILES: CCOCCOCCOCCNN1CCNCC1

Activity [1]: inactive
SMILES: c1ccc(CCCCNC2CCNCC2)cc1
